ChEMBL document CHEMBL4507302, “Data for DCP probe TP-020” (2021)

Columns and labels:
Conditions in all cases: Compound concentration 1000.0 nM
[1] = target: Serine/threonine-protein kinase SBK1 (Homo sapiens) (UniProt Q52WX2)
[2] = target: Mitotic checkpoint serine/threonine-protein kinase BUB1 (Homo sapiens) (UniProt O43683)
[3] = target: Calcium-dependent protein kinase 1 (Plasmodium falciparum) (UniProt P62344)
[4] = target: Serine/threonine-protein kinase 32C (Homo sapiens) (UniProt Q86UX6)
Serine/threonine-protein kinase 32C (Homo sapiens), sequence (Q86UX6 whole entry, canonical isoform): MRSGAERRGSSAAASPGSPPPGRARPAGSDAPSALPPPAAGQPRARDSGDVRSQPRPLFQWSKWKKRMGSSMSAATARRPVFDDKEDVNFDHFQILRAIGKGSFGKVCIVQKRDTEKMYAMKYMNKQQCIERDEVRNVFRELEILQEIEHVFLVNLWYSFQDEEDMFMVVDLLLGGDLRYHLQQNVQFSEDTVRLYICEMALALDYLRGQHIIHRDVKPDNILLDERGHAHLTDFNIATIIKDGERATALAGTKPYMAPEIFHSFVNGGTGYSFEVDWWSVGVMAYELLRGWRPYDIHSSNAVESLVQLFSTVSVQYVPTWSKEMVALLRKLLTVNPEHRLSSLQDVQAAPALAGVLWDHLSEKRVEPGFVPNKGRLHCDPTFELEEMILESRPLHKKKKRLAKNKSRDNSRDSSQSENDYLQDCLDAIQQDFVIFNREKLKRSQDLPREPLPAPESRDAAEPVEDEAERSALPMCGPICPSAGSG

[5] = system: Phosphatidylinositol 4,5-bisphosphate 3-kinase catalytic subunit alpha isoform (Homo sapiens), P42336 [Q546K]
[6] = target: Activin receptor type-2B (Homo sapiens) (UniProt Q13705)
[7] = target: Tyrosine-protein kinase Tec (Homo sapiens) (UniProt P42680)
[8] = system: Epidermal growth factor receptor (Homo sapiens), P00533 [L858R,T790M]
[9] = target: Serine/threonine-protein kinase PAK 1 (Homo sapiens) (UniProt Q13153)
[10] = target: Protein kinase C eta type (Homo sapiens) (UniProt P24723)
[11] = target: Ephrin type-A receptor 7 (Homo sapiens) (UniProt Q15375)
[12] = system: Epidermal growth factor receptor (Homo sapiens), P00533 [L861Q]
[13] = target: Casein kinase II subunit alpha (Homo sapiens) (UniProt P68400)
Casein kinase II subunit alpha (Homo sapiens), sequence (P68400 whole entry, looked up): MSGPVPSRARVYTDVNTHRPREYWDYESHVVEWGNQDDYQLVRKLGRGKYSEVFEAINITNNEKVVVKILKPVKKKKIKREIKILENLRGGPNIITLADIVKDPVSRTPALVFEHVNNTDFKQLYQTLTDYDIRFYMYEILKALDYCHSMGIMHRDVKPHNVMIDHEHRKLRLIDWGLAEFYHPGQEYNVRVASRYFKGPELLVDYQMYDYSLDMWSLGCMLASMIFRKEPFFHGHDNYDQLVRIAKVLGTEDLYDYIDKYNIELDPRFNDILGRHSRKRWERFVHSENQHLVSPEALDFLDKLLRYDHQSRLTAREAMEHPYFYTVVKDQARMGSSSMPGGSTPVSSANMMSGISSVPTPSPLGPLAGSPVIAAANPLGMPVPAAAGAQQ

[14] = target: Fibroblast growth factor receptor 4 (Homo sapiens) (UniProt P22455)
[15] = target: Muscle, skeletal receptor tyrosine-protein kinase (Homo sapiens) (UniProt O15146)
[16] = target: Mitogen-activated protein kinase 9 (Homo sapiens) (UniProt P45984)
[17] = target: Phosphatidylinositol 3-kinase C2 domain-containing subunit gamma (Homo sapiens) (UniProt O75747)
[18] = system: Tyrosine-protein kinase ABL1 (Homo sapiens), P00519 [E255K]
Tyrosine-protein kinase ABL1 (Homo sapiens), P00519 [E255K], sequence (P00519 whole entry E255K): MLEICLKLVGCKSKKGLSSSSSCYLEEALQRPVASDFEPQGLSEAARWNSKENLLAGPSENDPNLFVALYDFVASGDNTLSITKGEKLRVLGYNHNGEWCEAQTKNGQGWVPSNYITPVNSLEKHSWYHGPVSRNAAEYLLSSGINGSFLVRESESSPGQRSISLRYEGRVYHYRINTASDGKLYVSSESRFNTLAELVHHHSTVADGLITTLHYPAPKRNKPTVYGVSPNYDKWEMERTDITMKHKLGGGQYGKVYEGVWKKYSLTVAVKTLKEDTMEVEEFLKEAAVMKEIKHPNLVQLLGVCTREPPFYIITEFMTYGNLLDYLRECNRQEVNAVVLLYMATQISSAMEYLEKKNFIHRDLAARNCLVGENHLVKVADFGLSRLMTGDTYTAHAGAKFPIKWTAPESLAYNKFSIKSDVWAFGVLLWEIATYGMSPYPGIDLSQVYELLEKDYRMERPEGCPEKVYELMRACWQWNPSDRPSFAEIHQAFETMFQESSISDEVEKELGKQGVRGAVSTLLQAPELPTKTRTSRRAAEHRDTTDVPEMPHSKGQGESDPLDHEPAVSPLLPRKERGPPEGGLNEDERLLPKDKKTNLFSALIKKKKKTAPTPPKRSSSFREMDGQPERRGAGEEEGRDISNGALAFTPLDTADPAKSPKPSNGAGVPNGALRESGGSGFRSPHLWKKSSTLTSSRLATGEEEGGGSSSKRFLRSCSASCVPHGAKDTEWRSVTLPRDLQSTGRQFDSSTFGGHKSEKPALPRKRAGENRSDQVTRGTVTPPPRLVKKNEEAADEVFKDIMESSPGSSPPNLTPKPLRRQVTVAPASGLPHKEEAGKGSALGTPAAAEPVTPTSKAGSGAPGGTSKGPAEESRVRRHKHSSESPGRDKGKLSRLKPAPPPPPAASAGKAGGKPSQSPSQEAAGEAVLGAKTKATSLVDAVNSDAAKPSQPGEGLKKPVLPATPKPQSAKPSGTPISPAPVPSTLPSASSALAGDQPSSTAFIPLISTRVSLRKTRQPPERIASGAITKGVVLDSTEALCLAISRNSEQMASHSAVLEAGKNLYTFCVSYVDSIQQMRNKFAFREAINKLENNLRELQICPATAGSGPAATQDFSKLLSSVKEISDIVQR

[19] = target: Serine/threonine-protein kinase D2 (Homo sapiens) (UniProt Q9BZL6)
[20] = target: Rhodopsin kinase GRK1 (Homo sapiens) (UniProt Q15835)
[21] = system: Mast/stem cell growth factor receptor Kit (Homo sapiens), P10721 [V559D,V654A]
[22] = target: Serine/threonine-protein kinase LATS1 (Homo sapiens) (UniProt O95835)
[23] = target: Mitogen-activated protein kinase kinase kinase 6 (Homo sapiens) (UniProt O95382)
[24] = target: ALK tyrosine kinase receptor (Homo sapiens) (UniProt Q9UM73)
[25] = target: Dual specificity tyrosine-phosphorylation-regulated kinase 1A (Homo sapiens) (UniProt Q13627)
[26] = target: Homeodomain-interacting protein kinase 3 (Homo sapiens) (UniProt Q9H422)
[27] = target: Focal adhesion kinase 1 (Homo sapiens) (UniProt Q05397)
Focal adhesion kinase 1 (Homo sapiens), sequence (Q05397 2-1052 limits assumed): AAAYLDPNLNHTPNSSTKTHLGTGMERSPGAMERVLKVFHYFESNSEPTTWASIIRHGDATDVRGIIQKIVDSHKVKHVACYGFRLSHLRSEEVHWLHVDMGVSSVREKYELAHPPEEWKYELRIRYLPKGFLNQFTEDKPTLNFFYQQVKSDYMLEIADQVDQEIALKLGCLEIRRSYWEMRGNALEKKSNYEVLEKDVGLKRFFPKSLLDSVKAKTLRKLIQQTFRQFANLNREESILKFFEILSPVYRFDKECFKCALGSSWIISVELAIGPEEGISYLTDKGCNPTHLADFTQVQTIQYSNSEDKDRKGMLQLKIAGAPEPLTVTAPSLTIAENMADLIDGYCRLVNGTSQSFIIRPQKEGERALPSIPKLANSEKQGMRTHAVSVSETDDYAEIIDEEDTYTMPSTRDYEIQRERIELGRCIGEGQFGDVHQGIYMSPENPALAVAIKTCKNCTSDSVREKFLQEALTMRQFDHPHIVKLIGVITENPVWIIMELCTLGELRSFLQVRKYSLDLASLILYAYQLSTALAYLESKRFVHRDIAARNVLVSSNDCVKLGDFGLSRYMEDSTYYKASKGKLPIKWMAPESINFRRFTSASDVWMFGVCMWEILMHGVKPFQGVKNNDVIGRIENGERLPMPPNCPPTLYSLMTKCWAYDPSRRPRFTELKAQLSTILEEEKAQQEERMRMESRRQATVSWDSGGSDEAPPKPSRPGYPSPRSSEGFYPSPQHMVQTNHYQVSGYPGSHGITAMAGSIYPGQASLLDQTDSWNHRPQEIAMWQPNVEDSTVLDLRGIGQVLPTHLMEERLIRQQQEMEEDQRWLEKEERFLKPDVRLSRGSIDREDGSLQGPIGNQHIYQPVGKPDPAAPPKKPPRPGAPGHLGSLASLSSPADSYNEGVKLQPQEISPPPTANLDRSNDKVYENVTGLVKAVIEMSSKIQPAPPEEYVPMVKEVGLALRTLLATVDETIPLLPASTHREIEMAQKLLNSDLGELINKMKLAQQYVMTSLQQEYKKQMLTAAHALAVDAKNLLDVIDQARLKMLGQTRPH

[28] = target: Cyclin-dependent kinase 9 (Homo sapiens) (UniProt P50750)
[29] = target: Serine/threonine-protein kinase ULK2 (Homo sapiens) (UniProt Q8IYT8)
Serine/threonine-protein kinase ULK2 (Homo sapiens), sequence (Q8IYT8 whole entry): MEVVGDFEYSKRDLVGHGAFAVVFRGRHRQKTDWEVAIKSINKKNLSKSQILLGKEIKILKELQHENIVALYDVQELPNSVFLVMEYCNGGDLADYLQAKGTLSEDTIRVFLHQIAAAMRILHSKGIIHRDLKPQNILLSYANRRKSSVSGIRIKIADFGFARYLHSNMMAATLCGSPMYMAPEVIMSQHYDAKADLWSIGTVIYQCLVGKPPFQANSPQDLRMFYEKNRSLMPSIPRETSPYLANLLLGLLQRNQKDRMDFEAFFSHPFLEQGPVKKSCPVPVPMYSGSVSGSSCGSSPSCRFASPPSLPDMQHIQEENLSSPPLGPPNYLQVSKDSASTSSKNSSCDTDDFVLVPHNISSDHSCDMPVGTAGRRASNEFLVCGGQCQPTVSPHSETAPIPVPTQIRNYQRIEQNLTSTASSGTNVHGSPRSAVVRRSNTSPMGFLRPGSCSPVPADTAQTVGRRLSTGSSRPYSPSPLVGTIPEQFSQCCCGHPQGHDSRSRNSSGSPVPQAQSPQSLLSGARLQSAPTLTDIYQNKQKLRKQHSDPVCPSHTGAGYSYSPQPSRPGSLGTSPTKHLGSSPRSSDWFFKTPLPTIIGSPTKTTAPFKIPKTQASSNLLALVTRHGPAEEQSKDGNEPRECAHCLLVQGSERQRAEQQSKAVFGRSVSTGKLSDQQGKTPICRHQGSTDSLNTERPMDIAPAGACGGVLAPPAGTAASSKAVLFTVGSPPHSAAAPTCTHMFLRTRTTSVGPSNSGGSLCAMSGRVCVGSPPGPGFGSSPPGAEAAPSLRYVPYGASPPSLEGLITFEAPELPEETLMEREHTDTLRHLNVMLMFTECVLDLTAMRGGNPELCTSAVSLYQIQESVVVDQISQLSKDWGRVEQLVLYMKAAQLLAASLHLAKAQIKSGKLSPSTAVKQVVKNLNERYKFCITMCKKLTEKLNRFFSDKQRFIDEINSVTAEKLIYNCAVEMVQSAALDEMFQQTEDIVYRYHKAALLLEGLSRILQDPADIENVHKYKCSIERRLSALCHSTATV

[30] = target: Casein kinase II subunit alpha' (Homo sapiens) (UniProt P19784)
[31] = system: Receptor-type tyrosine-protein kinase FLT3 (Homo sapiens), P36888 [D835H]
[32] = system: Epidermal growth factor receptor (Homo sapiens), P00533 [UNDEFINED MUTATION]
[33] = target: Serine/threonine-protein kinase Nek5 (Homo sapiens) (UniProt Q6P3R8)
[34] = target: Atypical kinase COQ8B, mitochondrial (Homo sapiens) (UniProt Q96D53)
[35] = target: RAC-gamma serine/threonine-protein kinase (Homo sapiens) (UniProt Q9Y243)
RAC-gamma serine/threonine-protein kinase (Homo sapiens), sequence (Q9Y243 whole entry): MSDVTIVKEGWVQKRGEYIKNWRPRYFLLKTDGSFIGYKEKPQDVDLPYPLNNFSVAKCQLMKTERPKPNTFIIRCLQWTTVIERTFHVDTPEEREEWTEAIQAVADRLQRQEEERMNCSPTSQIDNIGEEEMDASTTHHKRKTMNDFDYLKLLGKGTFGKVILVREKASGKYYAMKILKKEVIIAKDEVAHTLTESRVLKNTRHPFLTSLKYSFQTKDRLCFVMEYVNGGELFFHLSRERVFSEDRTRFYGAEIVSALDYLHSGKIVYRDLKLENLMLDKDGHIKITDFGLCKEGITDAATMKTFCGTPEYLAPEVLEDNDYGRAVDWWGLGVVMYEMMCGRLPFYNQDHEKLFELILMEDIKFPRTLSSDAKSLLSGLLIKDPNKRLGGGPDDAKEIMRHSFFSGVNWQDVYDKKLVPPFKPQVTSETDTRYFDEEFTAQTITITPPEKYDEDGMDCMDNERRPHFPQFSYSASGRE

[36] = target: Dual specificity tyrosine-phosphorylation-regulated kinase 1B (Homo sapiens) (UniProt Q9Y463)
[37] = target: Serine/threonine-protein kinase pim-2 (Homo sapiens) (UniProt Q9P1W9)
Serine/threonine-protein kinase pim-2 (Homo sapiens), sequence (Q9P1W9 whole entry, looked up): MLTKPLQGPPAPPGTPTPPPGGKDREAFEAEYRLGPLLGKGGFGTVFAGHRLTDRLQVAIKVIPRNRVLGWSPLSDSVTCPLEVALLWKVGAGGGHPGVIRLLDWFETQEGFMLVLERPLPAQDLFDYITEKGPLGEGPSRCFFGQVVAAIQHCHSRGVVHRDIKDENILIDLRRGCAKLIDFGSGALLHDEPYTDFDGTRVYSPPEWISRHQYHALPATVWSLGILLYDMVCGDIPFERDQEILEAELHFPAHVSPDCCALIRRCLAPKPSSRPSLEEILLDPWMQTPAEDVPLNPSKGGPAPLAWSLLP

[38] = target: Mitogen-activated protein kinase kinase kinase 2 (Homo sapiens) (UniProt Q9Y2U5)
[39] = target: Interleukin-1 receptor-associated kinase 3 (Homo sapiens) (UniProt Q9Y616)
[40] = target: Casein kinase I isoform alpha (Homo sapiens) (UniProt P48729)
[41] = target: Serine/threonine-protein kinase MARK1 (Homo sapiens) (UniProt Q9P0L2)
[42] = target: Myosin-IIIa (Homo sapiens) (UniProt Q8NEV4)
[43] = target: Tyrosine-protein kinase Srms (Homo sapiens) (UniProt Q9H3Y6)
[44] = system: Tyrosine-protein kinase ABL1 (Homo sapiens), P00519 [F317L]
Tyrosine-protein kinase ABL1 (Homo sapiens), P00519 [F317L], sequence (P00519 whole entry F317L): as the sequence (P00519 whole entry E255K) above, with K255E, F317L counted along it

[45] = target: Serine/threonine-protein kinase Nek11 (Homo sapiens) (UniProt Q8NG66)

Measured: residual activity

Nc1cnc(N2CCc3cc(S(=O)(=O)Nc4c(F)cc(Cl)cc4F)cc(N4CCCC4=O)c32)nc1
inactive: [1] 83% | [2] 100% | [3] 97% | [4] 100% | [5] 78% | [6] 80% | [7] 99% | [8] 77% | [9] 89% | [10] 80% | [11] 85% | [12] 100% | [13] 100% | [14] 100% | [15] 100% | [16] 84% | [17] 78% | [18] 85% | [19] 100% | [20] 100% | [21] 100% | [22] 100% | [23] 75% | [24] 100% | [25] 80% | [26] 100% | [27] 99% | [28] 100% | [29] 100% | [30] 98% | [31] 100% | [32] 71% | [33] 100% | [34] 100% | [35] 94% | [36] 100% | [37] 85% | [38] 100% | [39] 89% | [40] 100% | [41] 76% | [42] 77% | [43] 88% | [44] 78% | [45] 100%

Cn1nc(C(F)(F)F)cc1-c1cnc(N2CCc3cc(S(=O)(=O)Nc4c(F)cc(Cl)cc4F)cc(N4CCCC4=O)c32)nc1 [TP-020]
inactive: [1] 92% | [2] 87% | [3] 70% | [4] 100% | [5] 82% | [6] 87% | [7] 79% | [8] 100% | [9] 100% | [10] 90% | [11] 78% | [12] 100% | [13] 65% | [14] 69% | [15] 87% | [16] 95% | [17] 94% | [18] 89% | [19] 95% | [20] 95% | [21] 89% | [22] 99% | [23] 67% | [24] 80% | [25] 93% | [26] 85% | [27] 98% | [28] 100% | [29] 74% | [30] 84% | [31] 100% | [32] 100% | [33] 86% | [34] 100% | [35] 84% | [36] 100% | [37] 100% | [38] 95% | [39] 100% | [40] 86% | [41] 92% | [42] 100% | [43] 100% | [44] 94% | [45] 78%
